Measured values taken from PubChem BioAssay AID256 (DTP/NCI, 2004).
Several values for one entry are separate records, joined by “and”; a condition that tells them apart may be missing. Equal values may be shown once. Inconclusive results and toxic doses are left out. Rule for the calls: active = survival T/C of 150% or more; inactive = T/C below 125% in these data.

System: CD2F1 mice, L1210 leukemia ip, survival T/C
Experiment: NCI In Vivo Anticancer Drug Screen. Data for tumor model L1210 Leukemia (intraperitoneal) in CD2F1 (CDF1) mice
Conditions: higher = longer survival
Description: The antitumor activity of compounds was measured in mice bearing transplantable tumors. Survival or tumor size were measured and the results are expressed as the measurement made in the treated group (T) divided by the measurement made in the vehicle treated control group (C). The tumor model used in this assay is L1210 Leukemia (intraperitoneal) in CD2F1 (CDF1) mice

[1] = endpoint: mean survival time, dose: 100.0 mg/kg/injection, schedule: Q04DX003 (ip), vehicle: saline with Tween-80
[2] = endpoint: mean survival time, dose: 25.0 mg/kg/injection, schedule: Q04DX002 (ip), vehicle: saline with Tween-80
[3] = endpoint: mean survival time, dose: 50.0 mg/kg/injection, schedule: Q01DX009 (ip), vehicle: saline with Tween-80
[4] = endpoint: median survival time, dose: 25.0 mg/kg/injection, schedule: Q01DX009 (ip), vehicle: saline
[5] = endpoint: mean survival time, dose: 100.0 mg/kg/injection, schedule: Q01DX009 (ip), vehicle: saline with Tween-80
[6] = endpoint: mean survival time, dose: 200.0 mg/kg/injection, schedule: Q01DX009 (ip), vehicle: saline with Tween-80
[7] = endpoint: mean survival time, dose: 400.0 mg/kg/injection, schedule: Q01DX009 (ip), vehicle: saline with Tween-80
[8] = endpoint: mean survival time, dose: 100.0 mg/kg/injection, schedule: Q04DX002 (ip), vehicle: saline with Tween-80
[9] = endpoint: mean survival time, dose: 200.0 mg/kg/injection, schedule: Q04DX002 (ip), vehicle: saline with Tween-80
[10] = endpoint: mean survival time, dose: 200.0 mg/kg/injection, schedule: Q04DX003 (ip), vehicle: saline with Tween-80
[11] = endpoint: mean survival time, dose: 400.0 mg/kg/injection, schedule: Q04DX003 (ip), vehicle: saline with Tween-80

Measured: T/C

CO[C@@]12[C@H](COC(N)=O)C3=C(C(=O)C(C)=C(N)C3=O)N1C[C@H]1[C@@H]2N1C(=O)[C@@H]1N2C(=O)[C@@H](NC(=O)Cc3ccccc3)[C@H]2SC1(C)C
inactive: endpoint: mean survival time, dose: 25.0 mg/kg/injection, schedule: Q01DX001 (ip), vehicle: carboxymethylcellulose (CMC) 109 % of control | endpoint: mean survival time, dose: 25.0 mg/kg/injection, schedule: Q01DX007 (ip), vehicle: carboxymethylcellulose (CMC) 120 % of control | endpoint: mean survival time, dose: 25.0 mg/kg/injection, schedule: Q01DX007 (oral), vehicle: carboxymethylcellulose (CMC) 100 % of control | endpoint: mean survival time, dose: 50.0 mg/kg/injection, schedule: Q01DX001 (ip), vehicle: carboxymethylcellulose (CMC) 113 % of control | endpoint: mean survival time, dose: 50.0 mg/kg/injection, schedule: Q01DX007 (ip), vehicle: carboxymethylcellulose (CMC) 116 % of control | endpoint: mean survival time, dose: 50.0 mg/kg/injection, schedule: Q01DX007 (oral), vehicle: carboxymethylcellulose (CMC) 96 % of control | endpoint: mean survival time, dose: 100.0 mg/kg/injection, schedule: Q01DX001 (ip), vehicle: carboxymethylcellulose (CMC) 111 % of control | endpoint: mean survival time, dose: 200.0 mg/kg/injection, schedule: Q01DX001 (ip), vehicle: carboxymethylcellulose (CMC) 111 % of control | endpoint: mean survival time, dose: 400.0 mg/kg/injection, schedule: Q01DX001 (ip), vehicle: carboxymethylcellulose (CMC) 111 % of control

CCNC(=S)Nc1ccc(Cl)cc1
inactive: endpoint: mean survival time, dose: 25.0 mg/kg/injection, schedule: Q04DX003 (ip), vehicle: saline with Tween-80 104 % of control | endpoint: mean survival time, dose: 50.0 mg/kg/injection, schedule: Q04DX003 (ip), vehicle: saline with Tween-80 101 % of control | [1] 91 % of control

Cc1cc(Nc2ccccc2)nc(C)n1
inactive: endpoint: mean survival time, dose: 12.5 mg/kg/injection, schedule: Q04DX002 (ip), vehicle: saline with Tween-80 111 % of control | [2] 114 % of control

COC1OC(CO)C(OC)C(OC)C1NC(C)=O (stereo unspecified)
inactive: endpoint: mean survival time, dose: 100.0 mg/kg/injection, schedule: Q01DX001 (ip), vehicle: saline + alcohol 101 % of control | endpoint: mean survival time, dose: 200.0 mg/kg/injection, schedule: Q01DX001 (ip), vehicle: saline + alcohol 103 % of control | endpoint: mean survival time, dose: 400.0 mg/kg/injection, schedule: Q01DX001 (ip), vehicle: saline + alcohol 97 % of control

C1CC[N-]CC1.C1CC[N-]CC1.C1CC[N-]CC1.C1CC[N-]CC1.N#C[S-].N#C[S-].[Ni]
inactive: endpoint: mean survival time, dose: 10.0 mg/kg/injection, schedule: Q04DX003 (ip), vehicle: Klucel (hydroxypropylcellulose) (HPC) 90 % of control | endpoint: mean survival time, dose: 20.0 mg/kg/injection, schedule: Q04DX003 (ip), vehicle: Klucel (hydroxypropylcellulose) (HPC) 91 % of control | endpoint: mean survival time, dose: 40.0 mg/kg/injection, schedule: Q04DX003 (ip), vehicle: Klucel (hydroxypropylcellulose) (HPC) 96 % of control

O=C([S-])N1CCCCC1.O=C([S-])N1CCCCC1.[Ni+2]
inactive: endpoint: mean survival time, dose: 12.5 mg/kg/injection, schedule: Q01DX009 (ip), vehicle: saline with Tween-80 96 % of control | endpoint: mean survival time, dose: 12.5 mg/kg/injection, schedule: Q04DX003 (ip), vehicle: saline sonified 100 % of control | endpoint: mean survival time, dose: 25.0 mg/kg/injection, schedule: Q01DX009 (ip), vehicle: saline with Tween-80 93 % of control | endpoint: mean survival time, dose: 25.0 mg/kg/injection, schedule: Q04DX003 (ip), vehicle: saline sonified 113 % of control | [3] 106 % of control | endpoint: mean survival time, dose: 50.0 mg/kg/injection, schedule: Q04DX003 (ip), vehicle: saline sonified 92 % of control

O=C(OCC#CC#CCOC(=O)c1cccc2ccccc12)c1cccc2ccccc12
inactive: endpoint: mean survival time, dose: 100.0 mg/kg/injection, schedule: Q04DX003 (ip), vehicle: Klucel (hydroxypropylcellulose) (HPC) 100 % of control | endpoint: mean survival time, dose: 200.0 mg/kg/injection, schedule: Q04DX003 (ip), vehicle: Klucel (hydroxypropylcellulose) (HPC) 102 % of control | endpoint: mean survival time, dose: 400.0 mg/kg/injection, schedule: Q04DX003 (ip), vehicle: Klucel (hydroxypropylcellulose) (HPC) 96 % of control

COc1ccc(CC#N)cc1OC
inactive: endpoint: mean survival time, dose: 3.75 mg/kg/injection, schedule: Q01DX009 (ip), vehicle: saline with Tween-80 95 % of control | endpoint: mean survival time, dose: 3.75 mg/kg/injection, schedule: Q04DX003 (ip), vehicle: saline with Tween-80 107 % of control | endpoint: mean survival time, dose: 7.5 mg/kg/injection, schedule: Q01DX009 (ip), vehicle: saline with Tween-80 95 % of control | endpoint: mean survival time, dose: 7.5 mg/kg/injection, schedule: Q04DX003 (ip), vehicle: saline with Tween-80 103 % of control | endpoint: mean survival time, dose: 15.0 mg/kg/injection, schedule: Q01DX009 (ip), vehicle: saline with Tween-80 95 % of control | endpoint: mean survival time, dose: 15.0 mg/kg/injection, schedule: Q04DX003 (ip), vehicle: saline with Tween-80 103 % of control

C/C(=N\NC(=O)c1ccccc1O)c1cccc(/C(C)=N/NC(=O)c2ccccc2O)n1
inactive: endpoint: median survival time, dose: 3.0 mg/kg/injection, schedule: Q01DX009 (ip), vehicle: saline 101 % of control | endpoint: median survival time, dose: 6.0 mg/kg/injection, schedule: Q01DX009 (ip), vehicle: saline 106 % of control | endpoint: median survival time, dose: 12.0 mg/kg/injection, schedule: Q01DX009 (ip), vehicle: saline 101 % of control | [4] 93 % of control

O=[N+]([O-])c1ccc(Sc2ccncn2)c([N+](=O)[O-])c1
inactive: endpoint: median survival time, dose: 6.25 mg/kg/injection, schedule: Q01DX009 (ip), vehicle: saline with Tween-80 101 % of control | endpoint: median survival time, dose: 12.5 mg/kg/injection, schedule: Q01DX009 (ip), vehicle: saline with Tween-80 102 % of control | endpoint: median survival time, dose: 25.0 mg/kg/injection, schedule: Q01DX009 (ip), vehicle: saline with Tween-80 103 % of control | endpoint: median survival time, dose: 50.0 mg/kg/injection, schedule: Q01DX009 (ip), vehicle: saline with Tween-80 105 % of control | endpoint: median survival time, dose: 100.0 mg/kg/injection, schedule: Q01DX009 (ip), vehicle: saline with Tween-80 113 % of control

CC(C)(O)c1cccc(F)c1
inactive: [3] 102 % of control | [5] 98 % of control | [6] 102 % of control | [7] 102 % of control

CCC1OC(OC)C=CC1=O (stereo unspecified)
inactive: endpoint: median survival time, dose: 12.5 mg/kg/injection, schedule: Q01DX009 (ip), vehicle: saline 100 % of control | [4] 102 % of control | endpoint: median survival time, dose: 50.0 mg/kg/injection, schedule: Q01DX009 (ip), vehicle: saline 105 % of control | endpoint: median survival time, dose: 100.0 mg/kg/injection, schedule: Q01DX009 (ip), vehicle: saline 102 % of control

C/C(=C\C(=O)Nc1ccc(S(=O)(=O)F)cc1)c1ccc([N+](=O)[O-])cc1
inactive: [2] 103 % of control and 104 % of control | endpoint: mean survival time, dose: 50.0 mg/kg/injection, schedule: Q04DX002 (ip), vehicle: saline with Tween-80 96 % of control and 102 % of control | endpoint: mean survival time, dose: 100.0 mg/kg/injection, schedule: Q01DX001 (ip), vehicle: saline with Tween-80 97 % of control | [5] 104 % of control and 106 % of control | [8] 100 % of control (2×) and 104 % of control | [1] 104 % of control | endpoint: mean survival time, dose: 200.0 mg/kg/injection, schedule: Q01DX001 (ip), vehicle: saline with Tween-80 92 % of control | [6] 96 % of control | [9] 96 % of control and 102 % of control and 107 % of control | [10] 101 % of control | endpoint: mean survival time, dose: 400.0 mg/kg/injection, schedule: Q01DX001 (ip), vehicle: saline with Tween-80 95 % of control | [7] 96 % of control and 100 % of control | endpoint: mean survival time, dose: 400.0 mg/kg/injection, schedule: Q04DX002 (ip), vehicle: saline with Tween-80 98 % of control | [11] 93 % of control

CCCCCCCCC(C(O)c1ccccc1)C(O)(C(F)(F)F)C(F)(F)F (stereo unspecified)
inactive: [1] 98 % of control | [10] 102 % of control | [11] 104 % of control

O=C1C=C(c2ccccc2)C(O)(c2ccccc2)/C1=C/c1ccccc1 (stereo unspecified)
inactive: [8] 87 % of control | [9] 88 % of control
